Assay results: patent US8552176B2 (priority 2010, dated 2013)
Where two headings read alike, the source gives them in different places.

Tests used:
Experiment in all cases: cells
[1] = system: A549; format: cell-based, human; details: read-out: GI50 A549 lung (+p53)
[2] = system: H1299; format: cell-based, human; details: read-out: GI50 H1299 lung (−p53)
[3] = system: NCI-H460; format: cell-based, human; details: read-out: GI50 NCI-H460 lung
[4] = system: HCT-15; format: cell-based, human; details: read-out: GI50 HCT-15 colorectal
[5] = system: HT29; format: cell-based, human; details: read-out: GI50 HT29 colorectal
[6] = system: Hep3b; format: cell-based, human; details: read-out: GI50 Hep3b liver
[7] = system: MCF7; format: cell-based, human; details: read-out: GI50 MCF7 breast
[8] = system: DU-145; format: cell-based, human; details: read-out: GI50 DU-145 prostate
[9] = system: SF-268; format: cell-based, human; details: read-out: GI50 SF-268 CNS
[10] = system: SKOV3; format: cell-based, human; details: read-out: GI50 SKOV3 ovary
[11] = system: ten-member panel of human carcinomas; format: cell-based

Compound | GI50 [1] | GI50 [2] | GI50 [3] | GI50 [4] | GI50 [5] | GI50 [6] | GI50 [7] | GI50 [8] | GI50 [9] | GI50 [10] | other results
CON(CCCCc1ccc(N(CCCl)CCCl)cc1)C1OCC(O)C(O)C1O (mixture of isomers) [Compound 53, N-Methoxy-4-(4-N′,N′-bis(2-chloroethyl)amino)phenylbutylamino-D-riboside] | 2.8 ± 0.1 µM | 3.6 ± 0.3 µM | 5.9 ± 0.7 µM | 1.8 ± 0.1 µM | 2.3 ± 0.1 µM | 2.4 ± 0.1 µM | 1.1 ± 0.1 µM | 3.8 ± 0.6 µM | 1.9 ± 0.1 µM | 2 ± 0.1 µM | GI50 ([11]; read-out: GI50): 1.8 to 5.9 µM
O=C(O)CCCc1ccc(N(CCCl)CCCl)cc1 [Compound 1, Chlorambucil, reference compound] | – | – | – | – | – | – | – | – | – | – | GI50 ([1]; Homo sapiens, A549, 168 h): 6.1 ± 0.3 µM; GI50 ([2]; Homo sapiens, NCI-H1299, 168 h): 4.9 ± 0.2 µM; GI50 ([3]; Homo sapiens, NCI-H460, 168 h): 11 ± 0.9 µM; GI50 ([4]; Homo sapiens, HCT-15, 168 h): 8.1 ± 0.1 µM; GI50 ([5]; Homo sapiens, HT-29, 168 h): 5 ± 0.3 µM; GI50 ([6]; Homo sapiens, Hep3B, 168 h): 5.1 ± 0.2 µM; GI50 ([7]; Homo sapiens, MCF7, 168 h): 8.2 ± 0.2 µM; GI50 ([8]; Homo sapiens, DU-145, 168 h): 9.4 ± 0.2 µM; GI50 ([9]; Homo sapiens, SF-268, 168 h): 5.4 ± 0.1 µM; GI50 ([10]; Homo sapiens, SK-OV-3, 168 h): 5.5 ± 0.4 µM; GI50 ([11]; Homo sapiens, read-out: GI50 values): 5 to 11 µM
CON(CCCCc1ccc(N(CCCl)CCCl)cc1)C1CC(O)C(O)C(C)O1 (centres unmarked) [Compound 50] | 3.1 ± 0.2 µM | 4.8 ± 0.5 µM | 5.7 ± 0.6 µM | 2.5 ± 0.2 µM | 3.2 ± 0.2 µM | 3.8 ± 0.2 µM | 3.1 ± 0.2 µM | 5.5 ± 0.1 µM | 2.3 ± 0.8 µM | 3.2 ± 0.1 µM | –
CON(CCCCc1ccc(N(CCCl)CCCl)cc1)C1OC(C)C(OC(C)=O)C(OC(C)=O)C1OC(C)=O (centres unmarked) [Compound 52] | 3.5 ± 0.1 µM | 5 ± 0.4 µM | 7.8 ± 0.8 µM | 3.7 ± 0.2 µM | 4.3 ± 0.2 µM | 4.6 ± 0.2 µM | 3.2 ± 0.6 µM | 4.5 ± 0.1 µM | 3 ± 0.1 µM | 3.9 ± 0.1 µM | –
CON(CCCCc1ccc(N(CCCl)CCCl)cc1)C1OC[C@H](O)[C@H](O)[C@@H]1O (stereo partly drawn) [Compound 54, N-Methoxy-4-(4-N′,N′-bis(2-chloroethyl)amino)phenylbutylamino-L-riboside] | 2.4 ± 0.1 µM | 3.3 ± 0.2 µM | 5.7 ± 0.6 µM | 2.1 ± 0.1 µM | 2.2 ± 0.1 µM | 2.4 ± 0.1 µM | 0.97 ± 0.02 µM | 3.7 ± 0.1 µM | 2.1 ± 0.2 µM | 2 ± 0.1 µM | –
CON(CCCCc1ccc(N(CCCl)CCCl)cc1)C1OC(COCc2ccccc2)C(OCc2ccccc2)C1OCc1ccccc1 (centres unmarked) [Compound 57] | > 100 µM | 82 ± 7 µM | > 100 µM | > 100 µM | > 100 µM | > 100 µM | > 100 µM | > 100 µM | > 100 µM | > 100 µM | –
CON(CCCCc1ccc(N(CCCl)CCCl)cc1)[C@H]1O[C@H](CO)[C@H](O)[C@H](O)[C@@H]1O [Compound 58] | 2.6 ± 0.1 µM | 3 ± 0.3 µM | 5 ± 0.6 µM | 2.2 ± 0.1 µM | 1.8 ± 0.4 µM | 2.4 ± 0.1 µM | 1.5 ± 0.3 µM | 3.3 ± 0.1 µM | 1.7 ± 0.1 µM | 2 ± 0.1 µM | –
CON(CCCCc1ccc(N(CCCl)CCCl)cc1)[C@@H]1O[C@@H](CO)[C@@H](O)[C@@H](O)[C@H]1O [Compound 59] | 2.7 ± 0.2 µM | 2.4 ± 0.2 µM | 4.3 ± 0.4 µM | 2 ± 0.1 µM | 1.9 ± 0.1 µM | 2.6 ± 0.1 µM | 1.8 ± 0.3 µM | 3.4 ± 0.1 µM | 1.7 ± 0.1 µM | 2 ± 0.1 µM | –
CON(CCCCc1ccc(N(CCCl)CCCl)cc1)C1OCC(O)C1O (centres unmarked) [Compound 61] | 2 ± 0.2 µM | 0.72 ± 0.03 µM | 1.9 ± 0.5 µM | 0.82 ± 0.05 µM | 1.2 ± 0.1 µM | 1.4 ± 0.1 µM | 0.87 ± 0.09 µM | 2.1 ± 0.1 µM | 1.3 ± 0.1 µM | 2.1 ± 0.1 µM | –
CON(CCCCc1ccc(N(CCCl)CCCl)cc1)C1OCC(O)C(O)C1O (centres unmarked) [Compound 62] | 2.3 ± 0.1 µM | 0.83 ± 0.04 µM | 4.5 ± 0.4 µM | 0.9 ± 0.05 µM | 1.6 ± 0.1 µM | 1.5 ± 0.1 µM | 0.91 ± 0.09 µM | 2.3 ± 0.1 µM | 1.4 ± 0.1 µM | 2.2 ± 0.1 µM | –
CON(CCCCc1ccc(N(CCCl)CCCl)cc1)C1OCC(O)C(O)C1O (centres unmarked) [Compound 63] | 2.2 ± 0.1 µM | 0.93 ± 0.03 µM | 2.9 ± 0.3 µM | 0.83 ± 0.04 µM | 1.5 ± 0.1 µM | 1.6 ± 0.1 µM | 1.2 ± 0.2 µM | 2.2 ± 0.1 µM | 1.5 ± 0.1 µM | 2.4 ± 0.1 µM | –
C[C@H]1OC(N(O)CCCCc2ccc(N(CCCl)CCCl)cc2)[C@H](O)[C@@H](O)[C@H]1O (stereo partly drawn) [Compound 66, N-Hydroxy-4-(4-N′,N′-bis(2-chloroethyl)amino)phenylbutylamino-D-fucoside] | 6.4 ± 0.3 µM | 2.6 ± 0.1 µM | 4.9 ± 0.2 µM | 3.8 ± 0.3 µM | 4.6 ± 0.1 µM | 3.6 ± 0.3 µM | 2.7 ± 0.1 µM | 5.7 ± 0.4 µM | 1.4 ± 0.1 µM | 4.7 ± 0.1 µM | –
O=C1O[C@@H]2[C@@H](O)[C@H](N(O)CCCCc3ccc(N(CCCl)CCCl)cc3)O[C@@H]2[C@@H]1O [Compound 67, N-Hydroxy-4-(4-N′,N′-bis(2-chloroethyl)amino)phenylbutylamino-D-glucurono-6,3-lactonide] | 10.4 ± 0.6 µM | 3.8 ± 0.1 µM | 13.1 ± 0.4 µM | 8.5 ± 0.5 µM | 9.9 ± 0.2 µM | 7.2 ± 0.3 µM | 4.1 ± 0.2 µM | 14.8 ± 0.8 µM | 3.1 ± 0.1 µM | 10.1 ± 0.4 µM | –
O[C@@H]1[C@H](O)COC(N(O)CCCCc2ccc(N(CCCl)CCCl)cc2)[C@@H]1O (stereo partly drawn) [Compound 68, N-Hydroxy-4-(4-N′,N′-bis(2-chloroethyl)amino)phenylbutylamino-D-riboside] | 0.84 ± 0.05 µM | 1.6 ± 0.2 µM | 1.04 ± 0.06 µM | 0.87 ± 0.05 µM | 0.9 ± 0.05 µM | > 5 µM | 3.2 ± 0.2 µM | > 5 µM | 1.5 ± 0.1 µM | 0.89 ± 0.04 µM | –
C[C@H]1O[C@@H](NNC(=O)CCCc2ccc(N(CCCl)CCCl)cc2)[C@H](O)[C@@H](O)[C@H]1O [Compound 72, 4-(4-N′,N′-bis(2-chloroethyl)amino)phenylbutylhydrazido-β-D-fucoside] | 28 ± 1 µM | 8.7 ± 0.3 µM | 51 ± 2 µM | > 100 µM | 16.7 ± 0.7 µM | 11 ± 0.3 µM | 6.3 ± 0.2 µM | 24 ± 2 µM | 5.8 ± 0.1 µM | 22 ± 1 µM | –
O=C(CCCc1ccc(N(CCCl)CCCl)cc1)NN[C@@H]1O[C@H]2[C@H](OC(=O)[C@H]2O)[C@H]1O [Compound 73, 4-(4-N′,N′-bis(2-chloroethyl)amino)phenylbutylhydrazido-D-glucurono-6,3-lactonide] | 31 ± 2 µM | 12.9 ± 0.7 µM | 43 ± 4 µM | > 100 µM | 30 ± 2 µM | 17.7 ± 0.4 µM | 9.9 ± 0.5 µM | 23 ± 2 µM | 8.9 ± 0.4 µM | 37 ± 2 µM | –
O=C(CCCc1ccc(N(CCCl)CCCl)cc1)NNC1OC[C@@H](O)[C@H](O)[C@H]1O (stereo partly drawn) [Compound 75, 4-(4-N′,N′-bis(2-chloroethyl)amino)phenylbutylhydrazido-D-xyloside] | 14.8 ± 0.7 µM | 3.9 ± 0.2 µM | 26 ± 3 µM | > 100 µM | 7.2 ± 0.1 µM | 5.5 ± 0.4 µM | 4.5 ± 0.2 µM | 19 ± 2 µM | 2.5 ± 0.1 µM | 12 ± 0.5 µM | –
N-Hydroxy-4-(4-N′,N′-bis(2-chloroethyl)amino)phenylbutylamino-D-threoside nitrone [Compound 70] | 3 ± 0.2 µM | 1.07 ± 0.08 µM | 3.8 ± 0.1 µM | 2.5 ± 0.1 µM | 3.2 ± 0.1 µM | 1.7 ± 0.1 µM | 2 ± 0.1 µM | 3.6 ± 0.2 µM | 1.2 ± 0.1 µM | 2.6 ± 0.1 µM | –
